Measured values published in patent US11710542B2, “Methods of protein docking and rational drug design” (priority 2016, dated 2023).
Converted amounts (≈) assume the structure as drawn.

What was measured:
E. coli K-12 strain = assay: MIC (MIC90) by broth microdilution, E. coli K-12 strain expressing TEM β-lactamase variants; format: cell-based; details: for MIC: E. coli K-12 strain, no plasmid (no TEM β-lactamase), MIC90
Procedure: (§1) Plasmids were then transformed into BL21(DE3) cells (Intact Genomics) and DH5a cells (Life Technologies) to create strains in which β-lactamases are expressed using a native promoter.
(§2) Antibiotic resistance of the strains was determined by measuring their minimum inhibitory concentrations (MIC90's) using the broth microdilution method according to the Clinical and Laboratory Standards Institute (CLSI, formerly the NCCLS) guidelines (CLSI document M07-A9, 2012). Each well of a 96-well microtiter plate was filled with 75 μL of sterile Mueller Hinton II (MHII) media broth (Sigma). Each antibiotic was dissolved in water making a 20 mM solution, then diluted with sterile MHII media broth to […] (BP) or 288 μM (CFX). Exactly 75 μL of the compound solution was added to the first well of the microtiter plate and 2-fold serial dilutions were made down each row of the plate. Exactly 75 μL of bacterial inoculum (5×10^5 CFU/mL) was then added to each well giving a total volume of 150 μL/well and compound concentration gradients of […] (BP) and 72 μM-0.04 μM (CXF). The plate was incubated at 37° C. for 17 h, and then each well was examined for bacterial growth. The MIC90 was recorded as the lowest compound concentration required to inhibit 90% of bacterial growth as judged by turbidity of the culture media relative to a row of wells filled with a water standard. Gentamicin was included in a control row at a concentration gradient of 174 μM-0.09 μM.

E. coli B strain = assay: MIC (MIC90) by broth microdilution, E. coli B strain expressing TEM β-lactamase variants; format: cell-based; details: for MIC: E. coli B strain, no plasmid (no TEM β-lactamase), MIC90
Procedure: as §1, §2

CC1(C)S[C@@H]2[C@H](NC(=O)Cc3ccccc3)C(=O)N2[C@H]1C(=O)O [BP, benzylpenicillin]
MIC (E. coli K-12 strain; Escherichia coli, K12STRAIN): 50 µM (≈ 16.7 µg/mL)
MIC (E. coli B strain; Escherichia coli): < 23 µM

Gentamicin
MIC (E. coli K-12 strain): 0.34 µM
MIC (E. coli B strain): 0.68 µM

CO/N=C(\C(=O)N[C@@H]1C(=O)N2C(C(=O)O)=C(COC(C)=O)CS[C@H]12)c1csc(N)n1 [CFX, cefotaxime]
MIC (E. coli K-12 strain): <0.035 µM
MIC (E. coli B strain): <0.035 µM

B1: TEM-1: wild-type TEM β-lactamase reference (protein, UniProt P62593 24-286, looked up)
Beta-lactamase TEM: HPETLVKVKDAEDQLGARVGYIELDLNSGKILESFRPEERFPMMSTFKVLLCGAVLSRVDAGQEQLGRRIHYSQNDLVEYSPVTEKHLTDGMTVRELCSAAITMSDNTAANLLLTTIGGPKELTAFLHNMGDHVTRLDRWEPELNEAIPNDERDTTMPAAMATTLRKLLTGELLTLASRQQLIDWMEADKVAGPLLRSALPAGWFIADKSGAGERGSRGIIAALGPDGKPSRIVVIYTTGSQATMDERNRQIAEIGASLIKHW
BP MIC (E. coli K-12 strain; benzylpenicillin (BP), E. coli K-12 strain expressing the TEM variant, MIC90, 37° C., 17 h): 24000 µM
CFX MIC (E. coli K-12 strain; cefotaxime (CFX), E. coli K-12 strain expressing the TEM variant, MIC90, 37° C., 17 h): <0.035 µM
Gentamicin MIC (E. coli K-12 strain; gentamicin (control antibiotic), E. coli K-12 strain expressing the TEM variant, MIC90, 37° C., 17 h): 0.17 µM
BP MIC (E. coli B strain; benzylpenicillin (BP), E. coli B strain expressing the TEM variant, MIC90, 37° C., 17 h, most commonly observed value, error +/− one well): 24000 µM
CFX MIC (E. coli B strain; cefotaxime (CFX), E. coli B strain expressing the TEM variant, MIC90, 37° C., 17 h): <0.035 µM
Gentamicin MIC (E. coli B strain; gentamicin (control antibiotic), E. coli B strain expressing the TEM variant, MIC90, 37° C., 17 h): 0.68 µM
